BindingDB's records for doi:10.1021/jm0011169 (Stockholm University, 2001)

Molecular target: T1, Dimer of Gag-Pol polyprotein [489-587] (Human immunodeficiency virus 1, UniProt P12497)
T1 construct: 489-587
Assay: Protease Inhibition Assay
Details: pH 5; 30 °C
Description: A fluorimetric assay was used to determine the effects of the inhibitors on HIV-1 protease. This assay used an internally quenched fluorescent peptide substrate. The measurements were performed in 96-well plates with a Fluoroscan plate reader. Excitation and emission wavelengths were 355 nm and 500 nm, respectively.

For `O=C(N[C@H]1c2ccccc2C[C@H]1O)[C@H](Sc1ccccc1F)[C@H](O)[C@@H](O)[C@@H](Sc1ccccc1F)C(=O)N[C@H]1c2ccccc2C[C@H]1O` [(2R,3R,4R,5R)-2,5-bis[(2-fluorophenyl)sulfanyl]-3,4-dihydroxy-N,N'-bis[(1S,2R)-2-hydroxy-2,3-dihydro-1H-inden-1-yl]hexanediamide], which Ki is on record?
Its Ki is 2.3 nM.

Which Ki does the source give for `C=CCS[C@@H](C(=O)N[C@H]1c2ccccc2C[C@H]1O)[C@H](O)[C@@H](O)[C@@H](SCC=C)C(=O)N[C@H]1c2ccccc2C[C@H]1O` [(2R,3R,4R,5R)-3,4-dihydroxy-N,N'-bis[(1S,2R)-2-hydroxy-2,3-dihydro-1H-inden-1-yl]-2,5-bis(prop-2-en-1-ylsulfanyl)hexanediamide] here?
Its Ki is 16 nM.

With `O=C(N[C@H]1c2ccccc2C[C@H]1O)[C@H](SCc1ccccc1F)[C@H](O)[C@@H](O)[C@@H](SCc1ccccc1F)C(=O)N[C@H]1c2ccccc2C[C@H]1O` [N1,N6-Di[(2R)-hydroxy-(1S)-indanyl]-(2R,3R,4R,5R)-2,5-di(2-fluorobenzylsulfanyl)-3,4-dihydroxyhexanediamide] as the molecule, how does the Ki read?
Its Ki is 4.3 nM.

How did the Ki turn out when `O=C(N[C@H]1c2ccccc2C[C@H]1O)[C@H](SCc1ccccc1)[C@H](O)[C@@H](O)[C@@H](SCc1ccccc1)C(=O)N[C@H]1c2ccccc2C[C@H]1O` [N1,N6-Di[(2R)-hydroxy-(1S)-indanyl]-(2R,3R,4R,5R)-2,5-di(benzylsulfanyl)-3,4-dihydroxyhexanediamide] was run?
The Ki was 2.8 nM.

With `O=C(N[C@H]1c2ccccc2C[C@H]1O)[C@H](Sc1ccccn1)[C@H](O)[C@@H](O)[C@@H](Sc1ccccn1)C(=O)N[C@H]1c2ccccc2C[C@H]1O` [N1,N6-Di[(2R)-hydroxy-(1S)-indanyl]-(2R,3R,4R,5R)-3,4-dihydroxy-2,5-di(2-pyridylsulfanyl)hexanediamide] as the molecule, how does the Ki read?
Its Ki is 285 nM.

Which Ki does the source give for `O=C(N[C@H]1c2ccccc2C[C@H]1O)[C@H](Sc1ccccc1)[C@H](O)[C@@H](O)[C@@H](Sc1ccccc1)C(=O)N[C@H]1c2ccccc2C[C@H]1O` [N1,N6-Di[(2R)-hydroxy-(1S)-indanyl]-(2R,3R,4R,5R)-3,4-dihydroxy-2,5-di(phenylsulfanyl)hexanediamide] here?
Its Ki is 1.8 nM.
